Residues, ends and D or L forms follow the SMILES beside them.
Assays:
[1] = test system: Rat Portal Vein; assay: KCl-induced tonic contraction of rat portal vein smooth muscle specimens; type: cell-based
Description: Spontaneous contraction curve values for each SMS were recorded by making repetitive measurements of the spontaneous contractile activity of each sample at 2, 5, 10, and 15 minutes after the addition of the test or reference substance to each SMS/organ bath. Next, 0.5 ml of a solution of 600 mM solution of KCl in […] in the organ bath until a final concentration of 60 mM KCl was achieved. The contractile activity of each SMS was then measured for 5 minutes.

[2] = test system: Intestinal Smooth Muscle; assay: Calcium-induced contraction of intestinal smooth muscle specimens; type: cell-based, guinea pigs; conditions: for Contraction Amplitude, calcium-induced (% of control level): 20 mM CaCl2
Description: GE and VT served as test substances in this experiment. GE was tested at concentrations of 10^-6 g/ml and 10^-5 g/ml (4.9×10^-6 M and 4.9×10^-5 M, respectively), and VT was tested at concentrations 10^-6 g/ml and 10^-5 g/ml (4.58×10^-6 and 4.58×10^-5 M, respectively).
Small intestinal SMS samples from ten guinea pigs were surgically isolated and prepared as follows. First, the SMS samples were preincubated for 40 minutes in an organ bath holding a standard Krebs-Henseleit physiological salt solution containing calcium chloride (CaCl2) at concentration of 2.5 mM. Next, each SMS was washed with a calcium-free solution of Krebs-Henseleit and incubated in a calcium-free Krebs-Henseleit solution for 40 minutes. Contractile activity was pre-induced in each SMS by first perfusing the organ bath containing the sample for 15 minutes with a Krebs-Henseleit solution containing 30 mM KCl and then perfusing the bath for an additional 15 minutes with a Krebs-Henseleit solution containing 20 mM CaCl2. Finally, each SMS sample was washed with a calcium-free Krebs-Henseleit solution for 40 minutes. In these experiments, measurements of the contractile response of the SMS following the addition of a Krebs-Henseleit solution containing 20 mM calcium served as the control (baseline). Changes in contraction amplitudes were recorded by using the method set forth in Step 1 of Example 2, above.
After washing the SMS as outlined in Step 1, the organ bath with the SMS sample was perfused for 15 minutes with the solution of a test or reference substance. In this instance, GE and VT served as the test substances, and each dipeptide was tested at a concentration of 10^-6 g/ml.
Following perfusion with the test or reference substance, the SMS sample/organ bath was perfused for 10 minutes with a Krebs-Henseleit solution containing 30 mM KCl and then perfused for an additional 10 minutes with a Krebs-Henseleit solution containing 20 mM CaCl2. Next, each SMS sample was washed with a calcium-free Krebs-Henseleit solution for 40 minutes. The effect of the test or reference substance on the SMS sample was evaluated by measuring the contractile response (i.e., the change in contraction amplitude) of the sample following the addition of the Krebs-Henseleit solution containing 20 mM CaCl2.
Next, the organ bath was perfused for 10 minutes with a Krebs-Henseleit solution containing 30 mM KCl and then for additional 10 minutes with a Krebs-Henseleit solution containing 20 mM CaCl2. The effect of the respective test or reference substance was evaluated a second time by measuring the change in the contraction amplitude of the SMS following the addition of the Krebs-Henseleit solution containing 20 mM CaCl2. […]

Q: With `NCC(=O)N[C@@H](CCC(=O)O)C(=O)O` [GE, L-Glycyl-L-Glutamic acid] (H-Gly-Glu-OH) as the compound, how does the “Area Under Curve of KCl-Induced Contraction (% of control)” value ([1]; 10^-6 g/ml, 60 mM KCl) read?
A: 90.26%

Q: What about the “effect on tonic contraction induced by KCl” value ([1]; venous smooth muscle specimens) of the same compound?
A: neither GE nor VT effected the character of the tonic contraction

Q: And the “effect on calcium-induced intestinal smooth muscle tonic contraction” value ([2]; 10^-6 and 10^-5 g/ml)?
A: significantly reduced the amplitude

Q: What about the “Contraction Amplitude, calcium-induced (% of control level)” value ([2]; Application I, 10^-6 g/ml) of the same compound?
A: 51.08%

Q: What about the “Contraction Amplitude, calcium-induced (% of control level)” value ([2]; Application II, 10^-5 g/ml) of the same compound?
A: 33.14%

From patent US5972894A, “Peptides having potassium channel opener activity” (Cytran, Inc., priority 1997, dated 1999)
